“And” between values parts separate entries of the source, which are not always exact repeats. Equal values may be shown once. Marks after values point to notes of the source that are not given here.
Tests used:
[1] = system: Caco-2 cell monolayer; assay: Caco-2 monolayer transport (bioavailability) study, AB and BA directions; type: in vitro ADME, Homo sapiens; conditions: for reduction in concentration on the apical (donor) side: 0 to 180 min; for TE (%) transport efficiency: after 180 min
How it was run: (§1)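 Grape skin extract in HBSS (15 or 22 mg/mL) applied to 21-day Caco-2 monolayers (TEER ≥300 Ω cm²) in AB and BA directions; acceptor samples quantified per polyphenol by HPLC-UV. Papp from steady-state flux over 1.12 cm², efflux ratio as Papp(BA)/Papp(AB), plus transport efficiency (C/C0).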

[2] = as above; type: in vitro ADME, Homo sapiens; conditions: human
How it was run: as §1

[3] = AB experiment, S1 (15 mg/mL GSE)
[4] = AB experiment, S2 (22 mg/mL GSE)
[5] = AB experiment, acceptor side, S1 (15 mg/mL GSE)
[6] = AB experiment, acceptor side, S2 (22 mg/mL GSE)
[7] = AB experiment, donor side, S1 (15 mg/mL GSE)
[8] = AB experiment, donor side, S2 (22 mg/mL GSE)
[9] = BA experiment, acceptor side, S1 (15 mg/mL GSE)
[10] = BA experiment, acceptor side, S2 (22 mg/mL GSE)
[11] = BA experiment, donor side, S1 (15 mg/mL GSE)
[12] = BA experiment, donor side, S2 (22 mg/mL GSE)

## O=c1c(O[C@@H]2O[C@H](CO)[C@@H](O)[C@H](O)[C@H]2O)c(-c2ccc(O)cc2)oc2cc(O)cc(O)c12 [K3G, kaempferol-3-glucoside]
[1]; [3]
  reduction in concentration on the apical (donor) side: 33.6 ± 0.5%
  TE (%) transport efficiency: 97 ± 2%
[1]; [4]
  reduction in concentration on the apical (donor) side: 28.7 ± 0.9%
  TE (%) transport efficiency: 60 ± 1% and 60.2 ± 0.9%
[1]; [5]
  Basolateral Side 75 min: 6.2 ± 0.1 ^b mg/L
  Basolateral Side 90 min: 6.7 ± 0.1 ^c mg/L
  Basolateral Side 115 min: 7.1 ± 0.1 ^c mg/L
  Basolateral Side 180 min: 7.4 ± 0.1 ^c mg/L
[1]; [6]
  Basolateral Side 75 min: 6.4 ± 0.1 ^b mg/L
  Basolateral Side 90 min: 6.8 ± 0.2 ^c mg/L
  Basolateral Side 115 min: 7.2 ± 0.2 ^d,c mg/L
  Basolateral Side 180 min: 7.6 ± 0.2 ^c mg/L
[1]; [7]
  Apical Side 0 min: 7.7 ± 0.3 mg/L and 7.7 ± 0.3 ^a mg/L
  Apical Side 75 min: 7.1 ± 0.2 ^b mg/L
  Apical Side 90 min: 6.7 ± 0.2 ^b,c mg/L
  Apical Side 115 min: 6.4 ± 0.2 ^c mg/L
  Apical Side 180 min: 5.0 ± 0.2 mg/L and 5.1 ± 0.2 ^d mg/L
[1]; [8]
  Apical Side 0 min: 12.7 ± 0.3 mg/L and 12.7 ± 0.3 ^a mg/L
  Apical Side 75 min: 11.8 ± 0.3 ^b mg/L
  Apical Side 90 min: 11.3 ± 0.3 ^b,c mg/L
  Apical Side 115 min: 10.6 ± 0.23 ^c mg/L
  Apical Side 180 min: 9.0 ± 0.2 mg/L and 9.0 ± 0.2 ^d mg/L
[1]; AB experiments, basolateral side
  detection at the acceptor side: detected
[1]; BA experiment, S1 (15 mg/mL GSE)
  TE (%) transport efficiency: 130 ± 3%
[1]; BA experiment, S2 (22 mg/mL GSE)
  TE (%) transport efficiency: 109.0 ± 0.9%
[1]; [9]
  Apical Side 75 min: 6.1 ± 0.3 ^b mg/L
  Apical Side 90 min: 7.4 ± 0.3 ^c mg/L
  Apical Side 115 min: 8.7 ± 0.4 ^d mg/L
  Apical Side 180 min: 9.9 ± 0.4 ^c mg/L
[1]; [10]
  Apical Side 75 min: 6.8 ± 0.2 ^a,b mg/L
  Apical Side 90 min: 8.1 ± 0.2 ^b,c mg/L
  Apical Side 115 min: 9.4 ± 0.3 ^c,d mg/L
  Apical Side 180 min: 10.6 ± 0.3 ^c mg/L
[1]; [11]
  Basolateral Side 0 min: 7.6 ± 0.2 ^a mg/L
  Basolateral Side 75 min: 7.2 ± 0.2 ^b mg/L
  Basolateral Side 90 min: 6.9 ± 0.2 ^c mg/L
  Basolateral Side 115 min: 6.6 ± 0.1 ^d mg/L
  Basolateral Side 180 min: 6.1 ± 0.1 ^c mg/L
[1]; [12]
  Basolateral Side 0 min: 9.8 ± 0.2 ^a mg/L
  Basolateral Side 75 min: 9.5 ± 0.2 ^b mg/L
  Basolateral Side 90 min: 9.3 ± 0.2 ^c mg/L
  Basolateral Side 115 min: 9.1 ± 0.2 ^d mg/L
  Basolateral Side 180 min: 8.5 ± 0.2 ^c mg/L
[1]; BA experiments, apical side
  detection at the acceptor side: detected
[2]; Caco-2, Papp (BA)/Papp (AB), S1 (15 mg/mL GSE), read-out: ER (efflux ratio)
  efflux ratio at 180 min, 15 mg/mL: 1.1
[2]; Caco-2, Papp (BA)/Papp (AB), S2 (22 mg/mL GSE), read-out: ER (efflux ratio)
  efflux ratio at 180 min, 22 mg/mL: 1.3
[2]; Caco-2, text statement, S1 and S2
  efflux ratio at 180 min: > 1
[2]; Caco-2, apical to basolateral, S1 (15 mg/mL GSE)
  Papp A→B at 180 min, 15 mg/mL: 1160 ± 20 ×10⁻⁶ cm/s
[2]; Caco-2, apical to basolateral, S2 (22 mg/mL GSE)
  Papp A→B at 180 min, 22 mg/mL: 730 ± 40 ×10⁻⁶ cm/s
[2]; Caco-2, basolateral to apical, S1 (15 mg/mL GSE)
  Papp B→A at 180 min, 15 mg/mL: 1230 ± 30 ×10⁻⁶ cm/s
[2]; Caco-2, basolateral to apical, S2 (22 mg/mL GSE)
  Papp B→A at 180 min, 22 mg/mL: 970 ± 30 ×10⁻⁶ cm/s

Reference: paper PMC12248599, “Exploring the Bioavailability of Red Grape Skin Extract Polyphenols: A Caco-2 Cell Model Study” (Foods, 2025)
